Where “and” joins values, the source holds several entries; their conditions need not be identical. Identical values can stand only once. Values belong to the compound of their own block, whether it stands above or below them.
Legend:
Sirt1 = molecular target: T1, Sirt1 (Homo sapiens, UniProt Q96EB6); experiment: fluorescence-based deacetylase assay with Z-Lys(acetyl)-AMC (ZMAL) substrate; assay type: biochemical; settings: for Sirt1 inhibition: n.i. = no inhibition detected, tested at 100 µM, 50 µM and 10 µM
T1 construct: Expression and purification of Sirt1_133-747; made in house
T1 sequence (Q96EB6 133-747): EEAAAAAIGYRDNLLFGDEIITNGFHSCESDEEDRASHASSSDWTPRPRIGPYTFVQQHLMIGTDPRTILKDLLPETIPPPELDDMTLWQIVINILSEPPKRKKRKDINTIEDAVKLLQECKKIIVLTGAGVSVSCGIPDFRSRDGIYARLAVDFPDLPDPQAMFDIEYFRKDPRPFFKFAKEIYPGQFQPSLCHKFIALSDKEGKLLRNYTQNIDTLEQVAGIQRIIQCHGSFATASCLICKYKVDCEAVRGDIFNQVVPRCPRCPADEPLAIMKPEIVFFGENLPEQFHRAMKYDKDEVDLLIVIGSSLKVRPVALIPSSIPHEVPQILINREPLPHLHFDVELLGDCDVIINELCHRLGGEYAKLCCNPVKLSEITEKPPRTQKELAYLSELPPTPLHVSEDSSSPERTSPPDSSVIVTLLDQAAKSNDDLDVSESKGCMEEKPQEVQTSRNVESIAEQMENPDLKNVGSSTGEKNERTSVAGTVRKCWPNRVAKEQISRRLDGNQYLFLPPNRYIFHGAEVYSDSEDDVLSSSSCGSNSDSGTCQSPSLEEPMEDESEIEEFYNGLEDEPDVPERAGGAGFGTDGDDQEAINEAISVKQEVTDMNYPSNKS
Method: (§1) The influence on deacetylase activity of three human sirtuin isoforms (Sirt1–3) was determined in a fluorescence-based assay, using Z-Lys(acetyl)-AMC (ZMAL) as a substrate. Compared to the lead structure 2a, all compounds except 2e–h show increased inhibitory activity against Sirt2 (Table 1). […] Moreover, a slight increase in selectivity for Sirt2 and Sirt3 over Sirt1 could be observed for 2c, 4a and 4b. […] Though not photoswitchable, compounds 4a and 4b were synthesized to test the influence of a rigid conformation around the C=C double bond on sirtuin inhibition. […] A recently developed fluorescence polarization (FP)-based assay enables mapping of ligand binding to this specific binding site. For 2a an interaction with the selectivity pocket was already implied in the same work. Additionally performed docking studies proposed a binding mode in which 2a mimics the nicotinamide residue of NAD^+, whereas aromatic amino acid residues of the selectivity pocket stabilize the dimethylphenol ring. As photoisomerization in stilbenes and azo dyes is accompanied by a perpendicular twist of the phenyl ring towards the former molecular plane, we assumed that this conformational change should provoke a differential binding situation at least for the dimethylphenol residue in 2a. Unfortunately, binding of 2b and c could not be localised in the vicinity of the selectivity pocket of Sirt2, so that the binding pose remains unclear.
(§2) The photoswitchable diazeno compound 11 was subjected to biological evaluation to test the effect of photoisomerization on the inhibitory activity. The enzyme assay mixture containing 11 was exposed to 5 minutes of 365 nm radiation and compared with the results of a non-irradiated measurement. […] Unfortunately, 365 nm radiation turned out to have only minor effects on the IC50 values of 11 (Table 3).
(§3) Cloning, expression and purification of recombinant proteins: Expression and purification of Sirt1_133-747, Sirt2_56−356, and Sirt3_118−395 was carried out as described previously. Identity and purity were verified by SDS-PAGE [65]. Protein concentration was determined by the Bradford assay.
(§4) Bioassay: The inhibitory effect of compounds 2a–h, 4a/b, 8a and 11 on Sirt1–3 was detected via a previously reported fluorescence based assay. The synthetic substrate Z-Lys(acetyl)-AMC (ZMAL) is deacetylated by sirtuins, followed by tryptic digestion and thereby release of […], leading to a fluorescent readout. Inhibition was determined by comparing percentage substrate conversion to a DMSO control after subtraction of the blank fluorescence signal. All compounds were tested at 100 µM, 50 µM and 10 µM, respectively. […] IC50 values were calculated with OriginPro 9.0 G using a non-linear regression to fit the dose response curve. An enzyme-free blank control and a 100% conversion control using AMC instead of ZMAL were measured as well. Inhibition measurements were performed in biological duplicates for all compounds.

Sirt2 = molecular target: T2, Sirt2 (Homo sapiens, UniProt Q8IXJ6); experiment: as above; assay type: biochemical; settings: for IC50: mean ± SD of duplicate experiments, read-out: Sirt2 inhibition IC50; for inhibition at 10 µM / inhibition at 50 µM: percent inhibition relative to controls
T2 construct: Sirt2_56−356; made in house
T2 sequence (Q8IXJ6 56-356): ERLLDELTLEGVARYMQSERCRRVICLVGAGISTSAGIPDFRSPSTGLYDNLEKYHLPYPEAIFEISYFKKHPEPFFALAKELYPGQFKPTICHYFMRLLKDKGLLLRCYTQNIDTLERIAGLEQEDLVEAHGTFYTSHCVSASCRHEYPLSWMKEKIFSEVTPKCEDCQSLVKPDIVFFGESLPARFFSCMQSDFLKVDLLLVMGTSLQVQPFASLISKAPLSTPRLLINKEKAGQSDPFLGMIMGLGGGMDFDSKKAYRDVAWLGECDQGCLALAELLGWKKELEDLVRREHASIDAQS
Method: as §1, §2, §3, §4

Sirt3 = molecular target: T3, Sirt3 (Homo sapiens, UniProt Q9NTG7); experiment: as above; assay type: biochemical; settings: for IC50: mean ± SD of duplicate experiments, read-out: Sirt3 inhibition IC50; for inhibition at 50 µM / inhibition at 10 µM: percent inhibition relative to controls; for Sirt3 inhibition: n.i. = no inhibition detected, tested at 100 µM, 50 µM and 10 µM
T3 construct: Sirt3_118−395; made in house
T3 sequence (Q9NTG7 118-395): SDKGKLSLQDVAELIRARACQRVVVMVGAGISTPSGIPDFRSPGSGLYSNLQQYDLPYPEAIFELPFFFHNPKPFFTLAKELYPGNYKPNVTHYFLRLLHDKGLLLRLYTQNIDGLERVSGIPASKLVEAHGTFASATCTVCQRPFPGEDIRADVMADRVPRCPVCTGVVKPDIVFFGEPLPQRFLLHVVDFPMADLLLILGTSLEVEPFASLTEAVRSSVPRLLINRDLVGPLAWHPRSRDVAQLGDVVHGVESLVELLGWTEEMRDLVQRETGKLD
Method: as §1, §2, §3, §4

[1] = E→Z photoisomerization of azastilbenes under 254 nm irradiation, proton NMR analysis; assay type: physicochemical; settings: after 100 minutes of 254 nm irradiation, 10 mM in methanol
Method: Photochemistry of compounds 2b and 2f was investigated via UV–vis spectroscopy, LC–HRMS and NMR spectroscopy. Compound 2b represents the core structure of the azastilbenes investigated, whereas in 2f the influence of ortho methylation was intended to be examined. For UV–vis spectroscopy 50 µM solutions in 5% DMSO (v/v) in enzyme assay buffer were used, as this reflects the enzyme assay conditions. However, for LC-HRMS and NMR analysis, a higher concentration of 10 mM in methanol was necessary to receive reliable chromatograms and spectra.
LC–HRMS analysis provided deeper insights and clarified the differential behaviour observed in the UV–vis spectra of 2b and 2f after UV irradiation. As anticipated, UV irradiation lead to E→Z isomerization of the C=C double bond in both compounds. […] Unfortunately, the amount of photoisomerization was only moderate, since after 100 minutes of continuous irradiation still substantial amounts of the (E)-isomers were present in the mixtures (Figure 3). Proton NMR analysis implied photostationary states comprising a relative percentage of 45% (Z)-2b and 57% (Z)-2f, respectively after 100 minutes of 254 nm irradiation. The NMR spectra can be found in Supporting Information File 1.
Photochemistry: All photoisomerization experiments were conducted under ruby light of 630 nm. […]

[2] = percent inhibition relative to controls

inhibition at 10 µM (Sirt1; [2]): 26% | inhibition at 10 µM (Sirt2): 21% | inhibition at 50 µM (Sirt3): 79% | relative percentage of (Z)-isomer in photostationary state [1]: 57%
SMILES: COc1cc(C)c(/C=C/c2cncc(C(N)=O)c2)c(C)c1 [Compound 2f]

inhibition at 50 µM (Sirt1; [2]): 52% | inhibition at 50 µM (Sirt2): 62% | inhibition at 50 µM (Sirt3): 87%
SMILES: NC(=O)c1cncc(/C=C/c2ccc3c(c2)OCO3)c1 [Compound 2g]

Sirt1 inhibition (Sirt1): n.i. | inhibition at 10 µM (Sirt2): 9% | Sirt3 inhibition (Sirt3): n.i.
SMILES: NC(=O)c1cncc(/C=C/c2cccc(NC(=O)c3ccc(OCc4ccccc4)cc3)c2)c1 [Compound 2h]

Sirt1 inhibition (Sirt1): complete loss of activity and n.i. | inhibition at 10 µM (Sirt2): 48% | inhibition at 10 µM (Sirt3): 38%
SMILES: NC(=O)c1cncc(C2=Cc3ccccc3CC2)c1 [Compound 4a]

Sirt1 inhibition (Sirt1): complete loss of activity and n.i. | inhibition at 10 µM (Sirt2): 45% | inhibition at 10 µM (Sirt3): 38%
SMILES: NC(=O)c1cncc(-c2ccc3ccccc3c2)c1 [Compound 4b]

Sirt1 inhibition (Sirt1): complete inactivity and n.i. | Sirt2 inhibition (Sirt2; n.i. = no inhibition detected, tested at 100 µM, 50 µM and 10 µM): complete inactivity and n.i. | Sirt3 inhibition (Sirt3): complete inactivity and n.i. | melting point: 276.8 °C
SMILES: NC(=O)c1cnc2c(ccc3ccccc32)c1 [Compound 8a]

Second part, the compound before the results:

SMILES: Cc1cc(O)cc(C)c1/C=C/c1cncc(C(N)=O)c1 [Compound 2a, reference compound]
inhibition at 50 µM (Sirt1; [2]): 27% | IC50 (Sirt2): 24.6 ± 2.8 µM | IC50 (Sirt3): 41.7 ± 2 µM

SMILES: NC(=O)c1cncc(/C=C/c2ccccc2)c1 [Compound 2b, (E)-5-Styrylnicotinamide]
inhibition at 10 µM (Sirt1; [2]): 71% | IC50 (Sirt2): 8.7 ± 0.2 µM | inhibition at 50 µM (Sirt3): 89% | relative percentage of (Z)-isomer in photostationary state [1]: 45%

SMILES: NC(=O)c1cncc(/C=C/c2ccc(F)cc2)c1 [Compound 2c, (E)-5-(4-Fluorostyryl)nicotinamide]
inhibition at 100 µM (Sirt1; @ 100 µM, percent inhibition relative to controls): 51% | IC50 (Sirt2): ~7 µM and 6.6 µM | IC50 (Sirt3): 7.5 ± 0.9 µM

SMILES: COc1ccc(/C=C/c2cncc(C(N)=O)c2)cc1 [Compound 2d]
inhibition at 10 µM (Sirt1; [2]): 51% | inhibition at 10 µM (Sirt2): 64% | inhibition at 50 µM (Sirt3): 90%

SMILES: NC(=O)c1cncc(/C=C/c2cccc(OCc3ccccc3)c2)c1 [Compound 2e]
inhibition at 50 µM (Sirt1; [2]): 61% | inhibition at 50 µM (Sirt2): 69% | inhibition at 50 µM (Sirt3): 60%
